IC50 data for seven molecules are collected here from patent US20260146035A1, “FUSED BICYCLIC COMPOUNDS AND THEIR USE AS MER AND AXL INHIBITORS” (DONG-A ST CO., LTD., priority 2022, published 2026).

Experiment [1] concerns the target T1, human TYRO3 (455-end) (Homo sapiens, UniProt Q06418).
T1 construct: TYRO3 (455-end); purchased SignalChem, Canada
T1 sequence (Q06418 455-890 limits assumed): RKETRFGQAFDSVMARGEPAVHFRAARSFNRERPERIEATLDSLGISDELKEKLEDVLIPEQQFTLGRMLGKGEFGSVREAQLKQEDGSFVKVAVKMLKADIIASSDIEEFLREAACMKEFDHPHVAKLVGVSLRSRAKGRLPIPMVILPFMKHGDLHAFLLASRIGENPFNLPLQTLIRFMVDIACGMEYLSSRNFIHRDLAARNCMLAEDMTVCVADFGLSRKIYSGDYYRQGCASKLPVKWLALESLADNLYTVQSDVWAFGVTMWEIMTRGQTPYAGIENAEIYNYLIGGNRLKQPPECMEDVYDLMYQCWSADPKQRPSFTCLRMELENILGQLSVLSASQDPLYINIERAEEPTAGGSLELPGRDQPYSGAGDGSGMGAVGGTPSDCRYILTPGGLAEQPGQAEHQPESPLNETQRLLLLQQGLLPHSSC
Kind of experiment: HTRF kinase activity biochemical assay, TYRO3. The settings on record: 10 μM ATP, 30 minutes pre-incubation; read-out: HTRF TYRO IC50. On the procedure: (§1) For the SAR (structure-activity relationship) and compound screening, HTRF (Homogeneous Time Resolved Fluorescence) kinase activity assay was employed for all MER, AXL and TYRO3 kinases using Cisbio HTRF® KinEASE™-TK kit (Cisbio, USA). The kit included biotin-labeled TK substrate, streptavidin-XL665, Eu3+-cryptate-labeled TK antibody and HTRF® Detection buffer. There are two main steps in the kinase assay: kinase reaction and detection of phosphorylated substrate. The reaction was carried out in white low volume 384-well plate (Corning, USA) with 25 nL compound in dimethyl sulfoxide in each well. […] After 1 hour incubation at room temperature, the fluorescence intensity was measured with Envision[…] plate reader (PerkinElmer, USA). Upon excitation at 340 nm by UV, the energy from Eu3+ donor of the antibody is transferred to the FRET acceptor XL665, and […] emits light at 665 nm.
For orientation: Time-resolved FRET reads energy transfer from a long-lived donor to a nearby acceptor.

Experiment [2] addresses T2, human AXL (473-end) (Homo sapiens, UniProt P30530).
T2 construct: human AXL (473-end); purchased SignalChem, Canada
T2 sequence (P30530 473-894 limits assumed): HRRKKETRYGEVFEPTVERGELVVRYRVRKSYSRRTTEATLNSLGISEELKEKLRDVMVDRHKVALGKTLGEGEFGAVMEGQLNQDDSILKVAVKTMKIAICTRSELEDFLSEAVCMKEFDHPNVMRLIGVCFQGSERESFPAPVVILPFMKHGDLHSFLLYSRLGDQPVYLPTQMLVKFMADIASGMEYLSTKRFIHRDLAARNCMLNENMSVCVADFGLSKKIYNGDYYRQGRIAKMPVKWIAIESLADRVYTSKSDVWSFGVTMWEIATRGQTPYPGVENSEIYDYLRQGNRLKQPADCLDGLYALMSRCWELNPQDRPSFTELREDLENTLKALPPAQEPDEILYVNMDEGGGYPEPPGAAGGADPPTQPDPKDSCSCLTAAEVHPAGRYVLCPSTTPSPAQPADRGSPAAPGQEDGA
Put plainly: HTRF kinase activity biochemical assay, AXL. The following applies: 10 μM ATP, 30 minutes pre-incubation. On the procedure:
as §1

Molecules are shown by their SMILES.

The term IC50 denotes the concentration at which inhibition is half-maximal.

As to `Nc1ncc(-c2ccc(F)nc2)cc1C(=O)N[C@H]1CCC[C@@H]1OCc1ccc(-c2ccc3c(c2)CCC3N2CCN(CC(O)CO)CC2)cc1` (stereo partly drawn) [Example 80, 6-amino-N-{(1S,2S)-2-[(4-{1-[4-(2,3-dihydroxypropyl)piperazin-1-yl]-2,3-dihydro-1H-inden-5-yl}phenyl)methoxy]cyclopentyl}-6′-fluoro[3,3′-bipyridine]-5-carboxamide], the results for the IC50 in experiment [1] and in experiment [2] were 100 to 1000 nM and less than 10 nM, respectively.
The corresponding values for `Nc1ncc(-c2cccnc2F)cc1C(=O)N[C@H]1CCC[C@@H]1OCc1ccc(-c2ccc3c(c2)CCC3N2CCN(CCO)CC2)cc1` (stereo partly drawn) [Example 82, 6-amino-2′-fluoro-N-{(1S,2S)-2-[(4-{1-[4-(2-hydroxyethyl)piperazin-1-yl]-2,3-dihydro-1H-inden-5-yl}phenyl)methoxy]cyclopentyl}[3,3′-bipyridine]-5-carboxamide] are 100 to 1000 nM and less than 10 nM.
The like results for `Nc1ncc(-c2ccc(F)nc2)cc1C(=O)N[C@H]1CCC[C@@H]1OCc1ccc(-c2ccc3c(c2)CC[C@@H]3N2CCN(CC(O)CO)CC2)cc1` (stereo partly drawn) [Example 100, 6-amino-N-{(1S,2S)-2-[(4-{(1S)-1-[4-(2,3-dihydroxypropyl)piperazin-1-yl]-2,3-dihydro-1H-inden-5-yl}phenyl)methoxy]cyclopentyl}-6′-fluoro[3,3′-bipyridine]-5-carboxamide] were, in that order, 100 to 1000 nM and less than 10 nM.
The like results for `Nc1ncc(-c2cccnc2F)cc1C(=O)N[C@H]1CCC[C@@H]1OCc1ccc(-c2ccc3c(c2)CC[C@@H]3N2CCN(CC(O)CO)CC2)cc1` (stereo partly drawn) [Example 102, 6-amino-N-{(1S,2S)-2-[(4-{(1S)-1-[4-(2,3-dihydroxypropyl)piperazin-1-yl]-2,3-dihydro-1H-inden-5-yl}phenyl)methoxy]cyclopentyl}-2′-fluoro[3,3′-bipyridine]-5-carboxamide] were, in that order, 100 to 1000 nM and less than 10 nM.
Turning to `Nc1ncc(-c2cccnc2F)cc1C(=O)N[C@H]1CCC[C@@H]1OCc1ccc(-c2ccc3c(c2)CC[C@@H]3N2CCN(C[C@H](O)CO)CC2)cc1` [Example 166, 6-amino-N-[(1S,2S)-2-({4-[(1S)-1-{4-[(2S)-2,3-dihydroxypropyl]piperazin-1-yl}-2,3-dihydro-1H-inden-5-yl]phenyl}methoxy)cyclopentyl]-2′-fluoro[3,3′-bipyridine]-5-carboxamide], the figures for the concentration for half-maximal inhibition (IC50) in experiment [1] and in experiment [2] were 100 to 1000 nM and less than 10 nM, respectively.
For the molecule `Nc1ncc(-c2cccnc2F)cc1C(=O)N[C@H]1CCC[C@@H]1OCc1ccc(-c2ccc3c(c2)CC[C@@H]3N2CCN(C[C@@H](O)CO)CC2)cc1` [Example 167, 6-amino-N-[(1S,2S)-2-({4-[(1S)-1-{4-[(2R)-2,3-dihydroxypropyl]piperazin-1-yl}-2,3-dihydro-1H-inden-5-yl]phenyl}methoxy)cyclopentyl]-2′-fluoro[3,3′-bipyridine]-5-carboxamide], the IC50 was 100 to 1000 nM in experiment [1] and less than 10 nM in experiment [2].
The like results for `Nc1ncc(-c2cccnc2F)cc1C(=O)N[C@H]1CCC[C@@H]1OCc1ccc(-c2ccc3c(c2)CCC[C@@H]3N2CCN(C[C@H](O)CO)CC2)cc1` [Example 173, 6-amino-N-[(1S,2S)-2-({4-[(5S)-5-{4-[(2S)-2,3-dihydroxypropyl]piperazin-1-yl}-5,6,7,8-tetrahydronaphthalen-2-yl]phenyl}methoxy)cyclopentyl]-2′-fluoro[3,3′-bipyridine]-5-carboxamide] were, in that order, 10 to 100 nM and less than 10 nM.
